# Laboratory results published in article PMC8202855, “Identification of novel hepatitis B virus therapeutic vaccine candidates derived from polymerase protein” (Aging (Albany NY), 2021).
# Entries after “also recorded” stand apart in the source; their conditions may differ.
# Legend:
# [1] = test system: epitope-specific T cells from PBMCs of healthy donors; assay: In vitro human IFN-γ ELISPOT assay of epitope-specific T cells; assay type: cell-based; settings: HLA-A0201-positive PBMCs of healthy donors cultured with peptide 50 μM and IL-2 100 U/ml, day 20; T cells 5x10^5/ml; versus PBS-induced control; 3 independent experiments
# Experimental: In order to measure the ability of epitope-specific T cells to produce IFN-γ, the ELISPOT assay was performed according to the instructions of the kit (Invitrogen, Carlsbad, CA, USA). Epitope-specific T cells(5x10^5/ml) were added to plates. An automated ELISPOT plate reader was used to quantify IFN-γ release by counting the number of spots present.
# [2] = test system: T2 cells; assay: In vitro cytotoxicity assay against T2 cells (LDH release); assay type: cell-based; settings: peptide-pulsed T2 cells 1×10^5/well, effector:target 10:1, 20:1, 40:1, 37° C, 5 hours, 3 independent experiments
# Experimental: T2 cell is (transporter associated with antigen processing, TAP) deficient cell line. When T2 cell is cultured with different epitopes, the HLA-A0201 molecule on surface of T2 cell will bind to different epitopes, the epitope-HLA-A0201 complex can be recognized by epitope-specific T cells and corresponding T2 cell will be lysed. In order to determine the cytotoxic activity of epitope-specific T cells, we measured LDH release based on the instructions of a non-radioactive cytotoxicity assay kit (Promega, USA). Epitope-specific T cells served as effector cells, and T2 cells loaded with or without each peptide served as target cells. The ratios of effector cells versus target cells were set to 10:1, 20:1 and 40:1. The effector cells were co-cultured with target cells (1×10^5/well) at 37° C for 5 hours, and LDH release was measured.
# [3] = test system: HepG2.2.15 cells; assay: In vitro cytotoxicity assay against HepG2.2.15 cells (LDH release); assay type: cell-based; settings: effector:target 20:1, 37° C, 12 hours, versus PBS-induced control, 3 independent experiments
# Experimental: In order to determine the antiviral abilities of epitope-specific T-cells, we detect the cytotoxicity of epitope-specific T cells against HepG2.2.15 cell. […] The ratios of epitope-specific T-cells versus HepG2.2.15 cells were set to 5:1, 10:1, 20:1. The effector cells and target cells were incubated together in 96-well plates at 37° C for 12 hours, and each well was added to total volume of 200 ul. The cytotoxicity activity of epitope-specific T-cells was evaluated based on LDH release using a non-radio-active cytotoxicity assay kit (Promega, US). The percentage of lysis was calculated as formula: (experimental release- target cell spontaneous release- effector cell spontaneous release)/(target cell maximum release- target cell spontaneous release).
# [4] = test system: HBV-DNA; assay: HBV gene expression assay: HBV-DNA (real-time fluorescence quantitative PCR); assay type: cell-based, Hepatitis B virus; settings: co-culture with HepG2.2.15 cells, effector:target 10:1, 72 hours, supernatant quantitative PCR; versus PBS group; 3 independent experiments
# Experimental: (§1) To validate the ability of epitopes to induce and stimulate the epitope-specific T cells, we used PBMCs from the blood of healthy donors. […] PBMCs were obtained through centrifugation at a Ficoll-Paque density gradient and suspended in RPMI-1640 medium supplemented with 10% fetal bovine serum (FBS), 100 U/ml penicillin and 100 μM streptomycin. PBMCs were stained by FITC-conjugated anti-HLA-A2 mAb and analyzed by flow cytometry. HLA-A0201-positive PBMCs were used for the expansion of epitope-specific T cells. PBMCs were cultured with each peptide (50 μM) and recombinant interleukin 2 (100 U/ml; Sigma, USA). Half of the culture medium was replaced with fresh RPMI-1640 medium every 3 or 4 days. […]
# (§2) The antiviral abilities of epitopes were also determined by HBV gene expression assay. […] The HBsAg concentration was detected by enzyme-linked immunosorbent assay (ELISA) according to the manufacturer’s protocol (Shanghai Siic Kehua Biotech Co., Ltd.). And the HBV-DNA concentration was detected by real-time fluorescence quantitative PCR according to the manufacturer’s protocol (Yaneng Bioscience (Shenzhen) Co., Ltd.). […] The inhibition ratios of HBsAg and HBV-DNA were calculated as the formula: (1- experimental group/ control group)×100%.
# [5] = test system: HBsAg; settings: co-culture with HepG2.2.15 cells, effector:target 10:1, 72 hours, supernatant ELISA; versus PBS group; 3 independent experiments
# Experimental: as §1, §2
# [6] = target: T1, HLA-A0201 molecule (Homo sapiens, UniProt P04439, D140Y/D185E/D98H/E176V/E277Q/G131W/G231S/I119V/I121R/I166T/I218V/L300P/L318F/N151K/N90K/P208A/P217A/Q86G/Q94H/R138H/R169H/T345S); assay: Peptide binding assay on T2 cells (HLA-A0201, flow cytometry); settings: T2 cells 1×10^6/well, peptide 100 μM, 18 hours, 37° C; FITC anti-HLA-A2 mAb BB7.2, flow cytometry; FI = (MFI peptide - background MFI)/background MFI; FI > 1 = high affinity; one representative of 3 independent experiments
# T1 construct: endogenous in cells; host or cells: T2 cells (TAP-deficient human cell line)
# Experimental: To analyze the binding affinity between epitopes and the HLA-A0201 molecule, we performed a peptide binding assay according to our previous study [18]. Briefly, T2 cells (1×10^6/well) were incubated with peptides (100 μM) in 24-well plates for 18 hours at 37° C. T2 cells without peptides served as a background control. After being washed with phosphate buffer saline (PBS) three times, cells were stained with FITC-conjugated anti-HLA-A2 mAb BB7.2 and analyzed using a BD AccuriC6 flow cytometer (Becton Dickinson, Mountain View, CA, USA). The mean fluorescence index (MFI) was recorded [43]. We calculated the fluorescence index (FI) as follows: FI = (MFI with individual peptides - background MFI)/(background MFI).
Sequence,"IFN-γ secretion of epitope-specific T cells (ELISPOT, in words) [1]",Cytotoxic activity of epitope-specific T cells toward T2 cells (in words) [2],Cytotoxic activity of epitope-specific T cells against HepG2.2.15 cells (in words) [3],Elimination of HBV-DNA by epitope-specific T cells (in words) [4],Inhibition of HBsAg expression by epitope-specific T cells (in words) [5],Fluorescence index (FI) [6]
GLLGFAAPF,more IFN-γ secretion than was measured in control (P<0.05),higher cytotoxic activity toward T2 cells compared to T cells stimulated by other epitopes,higher cytotoxic activities against HepG2.2.15 cells compared to control group (P<0.05),higher abilities to eliminate HBV-DNA compared to the PBS group (P<0.05),higher activities to inhibit the expression of HBsAg compared to the PBS group (P<0.05),
HLPDRVHFA,,,,,,0.2920
HLYSHPIIL,more IFN-γ secretion than was measured in control (P<0.05),higher cytotoxic activity toward T2 cells compared to T cells stimulated by other epitopes,higher cytotoxic activities against HepG2.2.15 cells compared to control group (P<0.05),higher abilities to eliminate HBV-DNA compared to the PBS group (P<0.05),higher activities to inhibit the expression of HBsAg compared to the PBS group (P<0.05),
RVTGGVFLV,lesser ability to induce epitope-specific T cells,lesser ability to induce epitope-specific T cells,higher cytotoxic activities against HepG2.2.15 cells compared to control group (P<0.05); also recorded: obvious weaker than the other two epitopes,,,
YVIGSWGTL,,,,,,0.8953
